From patent US9284325B2, “Spectinamides as anti-tuberculosis agents” (UNIVERSITY OF TENNESSEE RESEARCH FOUNDATION, priority 2009, dated 2016)
Where a name gives a salt, the structure may show the parent alone. Read-outs that look alike come from different tables or passages of the source.

Experiments:
[1] = system: M. tuberculosis H37Rv; test: MIC determination by microbroth dilution, anti-tuberculosis activity; type: cell-based, Mycobacterium tuberculosis
[2] = system: S. aureus 8325 or strain ATCC 29213; test: MIC determination by microbroth dilution; type: cell-based, Staphylococcus aureus; conditions: S. aureus 8325 or strain ATCC 29213 (for 1471-1544); for MIC: Staphylococcus aureus, ATCC29213
[3] = system: Strep. pyogenes ATCC 700294; test: MIC determination by microbroth dilution; type: cell-based, Streptococcus pyogenes; conditions: for MIC: Streptococcus pyogenes, ATCC700294, read-out: MIC S. pyogenes
[4] = system: Strep. pneumoniae DAW27 or strain R6; test: MIC determination by microbroth dilution; type: cell-based, Streptococcus pneumoniae; conditions: Strep. pneumoniae DAW27 or strain R6 (for 1443-1544); for MIC: Streptococcus pneumoniae, read-out: MIC S. pneumoniae
[5] = system: E. faecalis ATCC 33186; test: MIC determination by microbroth dilution; type: cell-based, Enterococcus faecalis; conditions: for MIC: Enterococcus faecalis, ATCC33186
[6] = system: B. anthracis Sterne 34F2; test: microbe, parasite or virus in culture; type: cell-based, Bacillus anthracis; conditions: for MIC: Bacillus anthracis, STERNE34F2, read-out: MIC B. anthracis 34F2
[7] = system: Burkholderia cepacia ATCC 25416; test: MIC determination by microbroth dilution; type: cell-based; conditions: for MIC: ATCC25416, read-out: MIC B. cepcia
[8] = system: Proteus mirabilis ATCC 25933; test: MIC determination by microbroth dilution; type: cell-based; conditions: for MIC: ATCC25933
[9] = system: Proteus vulgaris ATCC 33420; test: MIC determination by microbroth dilution; type: cell-based; conditions: for MIC: ATCC33420
[10] = system: Klebsiella pneumoniae ATCC 33495; test: MIC determination by microbroth dilution; type: cell-based; conditions: for MIC: ATCC33495
[11] = system: Acinetobacter baumannii ATCC 19606; test: MIC determination by microbroth dilution; type: cell-based; conditions: for MIC: ATCC19606
[12] = system: P. aeruginosa PAO1; test: MIC determination by microbroth dilution; type: cell-based, Pseudomonas aeruginosa; conditions: for MIC: Pseudomonas aeruginosa
[13] = system: Strenotrophomonas maltophilia ATCC 13637; test: MIC determination by microbroth dilution; type: cell-based
[14] = system: E. coli K12; test: MIC determination by microbroth dilution; type: cell-based, Escherichia coli; conditions: for MIC: Escherichia coli, K12
[15] = system: E. coli K12 ΔtolC; test: microbe, parasite or virus in culture; type: cell-based; conditions: for MIC: Escherichia coli, read-out: MIC E. coli K12 ΔtolC
[16] = system: E. coli ribosomes; type: biochemical; conditions: for relative inhibitory activity on luciferase production: tested at 0.66 and 6.6 μM, FIG. 5; for IC50, 50% inhibition of luciferase biosynthesis in S30 assay: E. coli S30 transcription/translation assay
[17] = Mycobacterium tuberculosis, H37RV, 168 h, read-out: MIC

Row | Compound | relative inhibitory activity on luciferase production [16] | MIC [1, 17] [µg/mL] | MIC [2] [µg/mL] | MIC [3] [µg/mL] | MIC [4] [µg/mL] | MIC [5] [µg/mL] | MIC [6] [µg/mL] | MIC [7] [µg/mL] | MIC [8] [µg/mL] | MIC [9] [µg/mL] | MIC [10] [µg/mL] | MIC [11] [µg/mL] | MIC [12] [µg/mL] | MIC [13] [µg/mL] | MIC [14] [µg/mL] | MIC [15] [µg/mL] | IC50, 50% inhibition of luciferase biosynthesis in S30 assay [16] [µg/mL] | further results
1 | 3′-Dihydro-3′-deoxy-4(R)-dodecylamino spectinomycin Trihydrochloride [Compound 1421] | less active than 1329 |  |  |  |  |  |  |  |  |  |  |  |  |  |  |  |  | MIC [1]: 25 µg/mL; MIC S. aureus [2]: 200 µg/mL; MIC S. pyogenes [3]: 50 µg/mL; MIC S. pneumoniae [4]: 200 µg/mL; MIC E. faecalis [5]: 200 µg/mL; MIC B. anthracis 34F2 [6]: 200 µg/mL; MIC B. cepcia [7]: 50 µg/mL; MIC P. mir [8]: >200 µg/mL; MIC P. vul [9]: >200 µg/mL; MIC K. pneu. [10]: >200 µg/mL; MIC A. bau. [11]: 50 µg/mL; MIC P. aer. [12]: >200 µg/mL; MIC S. mal [13]: 12.5 µg/mL; MIC E. coli K12 ([14]; E. coli K12): 200 µg/mL; MIC E. coli K12 ΔtolC ([15]; tolC knockout strain, defective multi-drug efflux pump): 50 µg/mL
2 | CN[C@@H]1[C@H](O)[C@H](NC)C2O[C@]3(O)C(OC2[C@H]1O)O[C@H](C)C[C@H]3NC(=O)c1ccc(F)cc1 (stereo partly drawn) [Compound 1364, 3′-Dihydro-3′-deoxy-4(R)-4-fluorobenzoylamino spectinomycin Dihydrochloride] | less active than 1329 | 50 | > 200 | 100 | > 200 | > 200 | 200 | > 200 | > 200 | > 200 | > 200 | > 200 | > 200 | > 200 | > 200 | 100 |  | 
3 | CN[C@@H]1[C@H](O)[C@H](NC)C2O[C@]3(O)C(OC2[C@H]1O)O[C@H](C)C[C@H]3NCc1cccc(OC)c1 (stereo partly drawn) [Compound 1423, 3′-Dihydro-3′-deoxy-4(R)-(3-methoxy)benzylamino spectinomycin Trihydrochloride] | inhibited well | 200 | 200 | 25 | 200 | > 200 | 200 | > 200 | > 200 | > 200 | > 200 | > 200 | > 200 | > 200 | 200 | 100 |  | 
4 | CN[C@@H]1[C@H](O)[C@H](NC)C2O[C@]3(O)C(OC2[C@H]1O)O[C@H](C)C[C@H]3NC(=O)Cc1ccncc1 (stereo partly drawn) [Compound 1413, 3′-Dihydro-3′-deoxy-4(R)-(pyridin-4-yl)acetylamino spectinomycin Dihydrochloride] |  | 100 | 50 | 200 | > 200 | > 200 | 200 | > 200 | > 200 | > 200 | > 200 | > 200 | > 200 | > 200 | 200 | 50 | 1.92 | 
5 | CN[C@@H]1[C@H](O)[C@H](NC)C2O[C@]3(O)C(OC2[C@H]1O)O[C@H](C)C[C@H]3NC(=O)Cc1cccnc1 (stereo partly drawn) [Compound 1368, 3′-Dihydro-3′-deoxy-4(R)-(pyridin-3-yl)acetylamino spectinomycin Dihydrochloride] |  | 12.5 | 50 | > 200 | > 200 | > 200 | 6.25 | > 200 | > 200 | > 200 | > 200 | > 200 | > 200 | > 200 | 100 | > 200 | 1.08 | 
6 | CN[C@@H]1[C@H](O)[C@H](NC)C2O[C@]3(O)C(OC2[C@H]1O)O[C@H](C)C[C@H]3NC(=O)c1ccco1 (stereo partly drawn) [Compound 1365, 3′-Dihydro-3′-deoxy-4(R)-furan-2-carboxylicamino spectinomycin Dihydrochloride] | less active than 1329 | 100 | > 200 | > 200 | > 200 | > 200 | > 200 | > 200 | > 200 | > 200 | > 200 | > 200 | > 200 | > 200 | > 200 | 200 |  | 
7 | CN[C@@H]1[C@H](O)[C@H](NC)C2O[C@]3(O)C(OC2[C@H]1O)O[C@H](C)C[C@H]3NC(=O)c1ccccn1 (stereo partly drawn) [Compound 1370, 3′-Dihydro-3′-deoxy-4(R)-pyridin-2-carboxylicamino spectinomycin Dihydrochloride] | less active than 1329 | 100 | > 200 | > 200 | > 200 | > 200 | 50 | > 200 | > 200 | > 200 | > 200 | > 200 | > 200 | > 200 | 200 | 100 | 0.89 | 
8 | CN[C@@H]1[C@H](O)[C@H](NC)C2O[C@]3(O)C(OC2[C@H]1O)O[C@H](C)C[C@H]3NC(=O)CNC(C)(C)C (stereo partly drawn) [Compound 1351, 3′-Dihydro-3′-deoxy-4(R)-(tert-butylamino)-acetylamino spectinomycin Dihydrochloride] | next most active | 25 | 200 | 100 | 200 | > 200 | 50 | > 200 | > 200 | > 200 | 200 | > 200 | 200 | 50 | > 200 | 50 | 0.22 | 
9 | CN[C@@H]1[C@H](O)[C@H](NC)C2O[C@]3(O)C(OC2[C@H]1O)O[C@H](C)C[C@H]3NC(=O)Cc1csc(N)n1 (stereo partly drawn) [Compound 1444, 3′-Dihydro-3′-deoxy-4(R)-(2-aminothiazol-4-yl)acetylamino spectinomycin trihydrobromide] |  | 3.1 | 100 | 25 | 25 | 50 | 6.25 | > 200 | > 200 | > 200 | 100 | > 200 | > 200 | > 200 | 100 | 200 | 0.12 | 
10 | CN[C@@H]1[C@H](O)[C@H](NC)C2O[C@]3(O)C(OC2[C@H]1O)O[C@H](C)C[C@H]3NC(=O)CC(C)C (stereo partly drawn) [Compound 1369, 3′-Dihydro-3′-deoxy-4(R)-(3-methyl)-butanoylamino spectinomycin Dihydrochloride] | less active than 1329 | 200 | > 200 | > 200 | > 200 | > 200 | 200 | > 200 | > 200 | > 200 | > 200 | > 200 | > 200 | > 200 | > 200 | > 200 |  | 
11 | CN[C@@H]1[C@H](O)[C@H](NC)C2O[C@]3(O)C(OC2[C@H]1O)O[C@H](C)C[C@H]3NCc1ccc(F)cc1 (stereo partly drawn) [Compound 1424, 3′-Dihydro-3′-deoxy-4(R)-4-fluoro)benzylamino spectinomycin Trihydrochloride] | inhibited well | 200 | 50 | 50 | 25 | 100 | 100 | > 200 | > 200 | > 200 | > 200 | > 200 | 200 | > 200 | 200 | 50 | 0.80 | 
